Assay results as given in patent publication US10835533B2, “1 -((3S,4R)-4-(3-fluorophenyl)-1-(2-methoxyethyl)pyrrolidin-3-yl)-3-(4-methyl-3-(2-methylpyrimidin-5-yl)-1-phenyl-1H-pyrazol-5-yl)urea as a TrkA kinase inhibitor” (Array BioPharma Inc., priority 2014, dated 2020).

What was measured:
[1] = Liver microsomal clearance, rat; format: in vitro ADME; conditions: pH 7.4; Rat liver microsomes; 1 mg/mL; 20 minutes
Method: The predicted hepatic clearance (CLh) value was calculated by scaling the in vitro half-life (t1/2) for stability of the compound in liver microsomes (1 mg/mL; 20 minutes) using the physical and physiological scaling factors used to predict intrinsic clearance (CLint) and hepatic clearance (CLhep) listed in Table 2 and employed in the following equations: […]
where D is the amount of cytochrome P450-related protein per mass of liver, W is the average mass of liver present per weight of animal, C is the liver microsomal concentration, and Q is the species-dependent hepatic blood flow.
A 100 mM potassium phosphate assay buffer solution (KPB) was prepared as follows. Both KH2PO4 and K2HPO4 were dissolved separately in reagent grade water resulting in final concentrations 100 mM. A 75:25 mixture v/v of K2HPO4:KH2PO4 was prepared and the pH of the solution was adjusted to 7.4 using diluted HCl or diluted NaOH solutions. Stock solutions of Compound 1, Compound 2 and Compound 3 were prepared at 10 mM (active compound) in DMSO. The stock solution was diluted immediately before use to 2.5 μM using the KPB solution to create the working standard. All test compounds were completely soluble in DMSO by visual inspection at room temperature. The NADPH-regenerating solution (NRS) was prepared on the day of analysis by diluting one volume of 17 mg/mL NADP^+ with one volume of 78 mg/mL glucose-6-phosphate (both prepared in KPB, pH 7.4) and 7.9 volumes of 20 mM MgCl2. The final concentrations of NADP^+ and glucose-6-phosphate were 1.7 mg/mL and 7.8 mg/mL, respectively. […]
All calculations were performed using BioAssay Enterprise. The mean peak area ratios were calculated by averaging the peak area ratios (n=2) of Compound 1, Compound 2, Compound 3, and the internal standard for each sample. Percent remaining was calculated by determining the ratio of the peak area ratio at each time point to the peak area ratio of the time-zero samples. The rate of loss of test compound (km) was determined by linear regression of −ln(f(t)) versus time. […] The t1/2 was determined dividing ln(2) by km. […]

[2] = molecular target: T1, His-tagged recombinant human TrkA (Homo sapiens, UniProt P04629); test: TrkA LanthaScreen Eu Kinase Binding Assay (Example A); conditions: assay of Example A; 60-minute incubation at 22° C.; read-out: averaged IC50 value, TrkA binding
T1 construct: 6HIS tagged cytoplasmic domain from Invitrogen, Catalog No. PV3144; purchased Invitrogen PV3144
T1 sequence (P04629 440-796 limits assumed): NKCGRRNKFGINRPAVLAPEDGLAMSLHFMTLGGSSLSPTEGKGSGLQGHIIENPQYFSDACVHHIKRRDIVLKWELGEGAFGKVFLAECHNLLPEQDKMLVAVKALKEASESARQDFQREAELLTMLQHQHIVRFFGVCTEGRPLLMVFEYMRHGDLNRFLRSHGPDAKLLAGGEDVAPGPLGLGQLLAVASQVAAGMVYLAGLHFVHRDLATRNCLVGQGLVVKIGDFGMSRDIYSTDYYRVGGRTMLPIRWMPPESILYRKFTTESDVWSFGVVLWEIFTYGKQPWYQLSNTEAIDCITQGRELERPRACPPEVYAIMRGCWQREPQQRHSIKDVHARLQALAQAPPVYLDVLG
Method: TrkA binding activity was determined in a TrkA LanthaScreen™ Eu Kinase Binding Assay. 5 nM His-tagged recombinant human TrkA (6HIS tagged cytoplasmic domain from Invitrogen, Catalog No. PV3144) was incubated with 4 nM Alexa-Fluor® Tracer 236 (Invitrogen Catalog No. PV5592), 2 nM biotinylated anti-His (Invitrogen Cat. No. PV6090), and 2 nM europium-labeled Streptavidin (Invitrogen Cat. No. PV5899), in buffer (25 mM MOPS, pH 7.5, 5 mM MgCl2, 0.005% Triton X-100). Three fold serial dilutions of Compound 1, compound 2 or compound 3 in DMSO were added to a final percentage of 2% DMSO. After 60-minute incubation at 22° C., the reaction was measured using the EnVision mutlimode plate reader (PerkinElmer) via TR-FRET dual wavelength detection at […]. The percent of control was calculated using a ratiometric emission factor. The IC50 value was determined by fitting a four parameter model to the percent of control data.

[3] = molecular target: T2, CHO-K1 cells transfected with human wild type TrkA (Homo sapiens, UniProt P04629); test: TrkA Cell Assay, phospho-TrkA ELISA (Example B); format: cell-based; conditions: assay of Example B, 30 ng/mL human NGF, read-out: averaged IC50 value, phospho-TrkA
T2 construct: expressed in transfected cells; host or cells: CHO-K1
T2 sequence (P04629 33-796): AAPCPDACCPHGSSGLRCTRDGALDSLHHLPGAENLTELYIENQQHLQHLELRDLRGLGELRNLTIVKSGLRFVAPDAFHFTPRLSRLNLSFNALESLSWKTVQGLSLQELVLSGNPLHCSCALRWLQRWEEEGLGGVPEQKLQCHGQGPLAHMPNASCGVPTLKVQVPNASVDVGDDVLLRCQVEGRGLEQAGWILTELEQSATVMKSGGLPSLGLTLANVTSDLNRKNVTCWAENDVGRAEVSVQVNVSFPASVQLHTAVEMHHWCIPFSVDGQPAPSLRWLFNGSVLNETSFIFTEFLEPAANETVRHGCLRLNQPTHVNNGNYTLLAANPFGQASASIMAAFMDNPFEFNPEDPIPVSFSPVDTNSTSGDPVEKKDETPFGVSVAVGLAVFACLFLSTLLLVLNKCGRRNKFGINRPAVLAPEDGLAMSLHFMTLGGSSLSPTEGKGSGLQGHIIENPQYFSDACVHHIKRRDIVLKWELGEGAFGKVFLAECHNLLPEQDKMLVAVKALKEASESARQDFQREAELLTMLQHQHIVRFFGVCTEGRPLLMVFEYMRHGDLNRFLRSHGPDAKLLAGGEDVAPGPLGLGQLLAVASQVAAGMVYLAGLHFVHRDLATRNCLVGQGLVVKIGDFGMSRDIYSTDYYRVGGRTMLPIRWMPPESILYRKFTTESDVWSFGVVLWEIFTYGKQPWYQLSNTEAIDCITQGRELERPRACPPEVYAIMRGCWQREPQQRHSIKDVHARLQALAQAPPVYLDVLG
Method: CHO-K1 cells transfected with human wild type TrkA were plated in a 96-well flat-bottom plate at 3×10^5 cells/well in complete DMEM medium containing 10% FBS and allowed to attach for 24 hours at 37° C., 5% CO2. Medium was then replaced with complete serum free assay medium and the cells were serum starved for 1 hour at 37° C., 5% CO2. Cells were treated with Compound 1, 2 or 3 using 1:3 serial dilutions with final concentrations ranging from 1 μM to […]. The compound was incubated on cells for 1 hour at 37° C., 5% CO2. Cells were then stimulated with a final concentration of 30 ng/mL human NGF for 7 minutes at 37° C., 5% CO2. Medium was removed and cells were lysed with lysis buffer containing phosphatase and protease inhibitors. Phospho-TrkA was measured by ELISA (R&D Catalog No. DYC2578). The ELISA captured total TrkA and detected total phosphor-tyrosine. Optical density was measured for each well using a Versamax reader at a wave length of 450 nm. The IC50 values were determined by fitting a four parameter model to the percent of control data.

Compound: COCCN1C[C@@H](NC(=O)Nc2c(C)c(-c3cnn(C)c3)nn2-c2ccccc2)[C@H](c2ccc(F)cc2)C1 [Compound 3, 1-(1′,4-dimethyl-1-phenyl-1H,1′H-[3,4′-bipyrazol]-5-yl)-3-((3S,4R)-4-(4-fluorophenyl)-1-(2-methoxyethyl)pyrrolidin-3-yl)urea]
- CLhep predicted at 1 μM [1]: 23 mL/min/kg
- IC50 [2]: 1.7 nM
- IC50 [3]: 6.1 nM

Compound: COCCN1C[C@@H](NC(=O)Nc2c(C)c(-c3cnc(C)nc3)nn2-c2ccccc2)[C@H](c2cccc(F)c2)C1 [Compound 1, 1-((3S,4R)-4-(3-fluorophenyl)-1-(2-methoxyethyl)pyrrolidin-3-yl)-3-(4-methyl-3-(2-methylpyrimidin-5-yl)-1-phenyl-1H-pyrazol-5-yl)urea]
- CLhep predicted at 1 μM [1]: 22 mL/min/kg
- IC50 [2]: 1.1 nM
- IC50 [3]: 1.9 nM

Compound: COCCN1C[C@@H](NC(=O)Nc2c(C)c(-c3cnc(C)nc3)nn2-c2ccccc2)[C@H](c2ccc(F)c(F)c2)C1 [Compound 2, 1-((3S,4R)-4-(3,4-difluorophenyl)-1-(2-methoxyethyl)pyrrolidin-3-yl)-3-(4-methyl-3-(2-methylpyrimidin-5-yl)-1-phenyl-1H-pyrazol-5-yl)urea]
- CLhep predicted at 1 μM [1]: 22 mL/min/kg
- IC50 [2]: 1.5 nM
- IC50 [3]: 1.3 nM
